Results from ChEMBL document CHEMBL1141296, “Brunneins A-C, beta-carboline alkaloids from Cortinarius brunneus” (J Nat Prod, 2007).

How the values were obtained:
PC-3 = assay: Cytotoxicity against human PC3 cells upto 100 uM after 24 hrs by XTT method; assay type: functional, cell-based
[1] = target: T1, Acetylcholinesterase (Bos taurus) (UniProt P23795); assay: Inhibition of bovine AChE at 100 uM by Ellman's method
T1 sequence (whole entry): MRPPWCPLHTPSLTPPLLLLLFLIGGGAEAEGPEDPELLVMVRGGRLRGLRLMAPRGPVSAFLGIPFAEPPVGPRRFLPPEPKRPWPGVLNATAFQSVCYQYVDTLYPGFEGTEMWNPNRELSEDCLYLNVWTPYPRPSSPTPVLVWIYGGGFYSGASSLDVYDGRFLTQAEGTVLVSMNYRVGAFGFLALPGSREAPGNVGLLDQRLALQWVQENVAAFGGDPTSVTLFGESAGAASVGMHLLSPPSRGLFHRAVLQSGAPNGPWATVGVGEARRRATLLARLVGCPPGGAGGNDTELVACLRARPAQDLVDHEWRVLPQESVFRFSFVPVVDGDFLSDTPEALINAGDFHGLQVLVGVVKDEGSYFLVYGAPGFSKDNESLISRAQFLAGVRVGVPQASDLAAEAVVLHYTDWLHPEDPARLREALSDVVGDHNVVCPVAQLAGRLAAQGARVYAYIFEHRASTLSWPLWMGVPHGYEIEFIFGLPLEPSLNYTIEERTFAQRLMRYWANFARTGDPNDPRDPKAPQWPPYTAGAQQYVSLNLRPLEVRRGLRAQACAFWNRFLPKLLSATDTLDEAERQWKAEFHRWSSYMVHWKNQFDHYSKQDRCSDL

[2] = target: Butyrylcholinesterase (Equus caballus) (UniProt Q9N1N9); assay: Inhibition of equine BChE at 100 uM by Ellman's method

CC1=N[C@H](C(=O)O)Cc2c1[nH]c1cc(O)ccc21
Activity (PC-3): Not toxic | inhibition [1]: < 50% | inhibition [2]: < 50%
